pIC50: −log10 of the molar value. Several values for one entry are separate records, joined by “and”; a condition that tells them apart may be missing. Equal values may be shown once.

For series [1], the target named is T1, purified recombinant IDO1 (Homo sapiens, UniProt P14902).
T1 construct: Full-length human IDO1 gene was cloned into the pET-28a vector; inferred from pET-28a vector and HisTrap purification; made in house; host or cells: E. coli Rosetta (DE3)
The series is described as follows: Enzymatic IDO1 inhibition assay (ascorbate/methylene blue reduction system, HPLC detection of kynurenine). Type of series: biochemical. Particulars: for pIC50: enzymatic, L-Trp 100 µM, 0.01% Triton X-100, 5% DMSO, 20 min at room temperature, pH 6.5, duplicates, read-out: IC50 [ μ M] (SD); for LE [kcal/mol/HA]: ligand efficiency, LE = -RT log(IC50)/number of heavy atoms, from enzymatic IC50.
Experimental: Enzymatic IC50 values were measured with the ascorbate/methylene blue reduction system[85] in presence of a non-ionic detergent to reduce compound aggregation as described before[28]. Kynurenine and L-Trp concentrations were determined by HPLC through UV detection.
Full-length human IDO1 gene was cloned into the pET-28a vector and expressed in E. coli Rosetta (DE3) cells. […] The culture was harvested and frozen at −80 °C until further use. The frozen cells were lysed by sonication in 20 mM Tris pH 7, 400 mM NaCl, 1 mM MgCl2, 20 mM imidazole, 1 mM DTT, 0.5 mg/mL Lysozyme and Protease inhibitor. After centrifugation, the supernatant was loaded into a HisTrap HP column pre-equilibrated with buffer containing 20 mM Tris pH 7, 500 mM NaCl and 20 mM imidazole, and eluted with the same buffer containing 500 mM imidazole. Fractions containing IDO1 were pooled, concentrated, and injected on a size exclusion chromatography column (HiLoad Superdex S75 16/60) to increase purity. hIDO1 fractions were concentrated to 20 mg/mL in 20 mM Tris pH 7 and 150 mM NaCl.
The enzymatic inhibition assays were performed as described by Takikawa et al.[130] with some modifications. Briefly, the reaction mixture (100 µL) contained potassium phosphate buffer (100 mM, pH 6.5) ascorbic acid (20 mM), catalase (400 units/mL), methylene blue (10 µM), purified recombinant IDO1 (2.5 ng/µL), L-Trp (100 µM), Triton X-100 (0.01%) and DMSO (5 µL). The inhibitors were serially diluted 3-fold for at least 8 different concentrations. After incubation at room temperature for 20 min, the reaction was stopped in its linear phase by addition of trichloroacetic acid solution (40 mL, 30% w/v), and the samples were incubated at 50 °C for 30 min. After centrifugation, 80 µl of supernatant from each well were used for HPLC analysis. The mobile phase for HPLC analysis was composed of 50% (v/v) of methanol and 50% of sodium citrate buffer (40 mM, pH 2.4) containing 400 µM sodium dodecyl sulphate. […] All assays were carried out in duplicates. The activity (Act) of each compound was calculated as Act = RT log(IC50) in analogy to the relation between the binding free energy and the Ki value. The ligand efficiency (LE) was calculated as LE = −Act/NHA, where NHA is the number of non-hydrogen atoms (heavy atoms) in the compound.

In series [2] the test system is HEK 293 T cells. In words: Cell viability / cellular toxicity (DAPI staining, cytometry). In kind it is cell-based, human. Particulars: compound 200 µM, 7 h. The protocol:
(§1) We tested the cellular hIDO1 inhibitory activity and toxicity of 30 active compounds at a single concentration (Figure 6 and Table 8). As some of the aniline derivatives reacted with Ehrlich’s reagent (p-dimethylaminobenzaldehyde, p-DMAB) used to quantify kynurenine, the kynurenine content of these samples was determined by HPLC. To be able to detect also weak inhibition, compounds were tested at the high concentration of 200 µM (Figure 6A and B, filled bars), except for less soluble compounds (52, 148, 149 and 153), which were tested at a concentration of 50 µM (Figure 6A and B, empty bars).
Following DMSO (negative control) or inhibitor treatments, apoptotic cells were detected by 4′,6-diamidino-2-phenylindole (DAPI) staining. Briefly, after 7 h of incubation, cells were washed with PBS, resuspended in PBS with 1 µg/mL DAPI and immediately analysed using a BD LSR II cytometer. A 405 nm laser with 450/50 nm bandpass filter was used to collect data.

The target of series [3] is T2, hIDO1 (Homo sapiens, UniProt P14902).
T2 construct: The full ORF of hIDO1 was cloned into the mammalian expression vector pcDNA6/myc-His; myc-His (vector-encoded); host or cells: HEK 293 T
T2 sequence (P14902 whole entry): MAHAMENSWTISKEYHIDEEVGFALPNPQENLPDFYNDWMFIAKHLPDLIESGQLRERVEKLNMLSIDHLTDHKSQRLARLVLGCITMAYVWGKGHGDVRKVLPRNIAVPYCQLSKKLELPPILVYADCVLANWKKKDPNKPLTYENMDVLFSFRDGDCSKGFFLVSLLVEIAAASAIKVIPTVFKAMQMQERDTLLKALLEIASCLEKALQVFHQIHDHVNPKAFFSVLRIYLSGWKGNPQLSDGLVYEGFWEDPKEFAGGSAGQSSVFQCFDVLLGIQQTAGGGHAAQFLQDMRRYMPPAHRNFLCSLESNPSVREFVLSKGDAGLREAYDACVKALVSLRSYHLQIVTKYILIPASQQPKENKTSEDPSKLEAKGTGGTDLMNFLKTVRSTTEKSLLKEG
In words: Cellular hIDO1 inhibition (kynurenine production) in transiently transfected HEK 293 T cells. In kind it is cell-based. Here is the method:
as §1
The cDNA encoding hIDO1 (NCBI, NM 0021464.3) was purchased from Origene as pCMV6-Entry vector (RC206592). The full ORF of hIDO1 was cloned into the mammalian expression vector pcDNA6/myc-His from Invitrogen. Human embryonic kidney 293 T (HEK 293 T) cells were transiently transfected with the plasmid construct encoding hIDO1. A 75 cm^2 flask containing HEK 293 T cells at a confluency of 70% was transfected with jetPEI DNA transfection reagent (Polyplus-transfection), according to manufacturer’s protocol. A total of 20 µg of pcDNA-IDO1 along with 5 µg of pcDNA-GFP plasmid were used for the transfection; GFP was used to evaluate transfection efficiency prior to the cellular assays. 16–18 h post-transfection the 293 T cells were detached with trypsin, centrifuged, and re-suspended in 25 mL of DMEM medium without phenol red, supplemented with penicillin and streptomycin, 10% foetal bovine serum and 1 mM pyruvate (Gibco). Subsequently, 100 µL of cells were distributed to each well of two 96-well round-bottom plates that had been pre-loaded with 100 µL DMEM and the small organic test molecule in DMSO (for a final DMSO concentration of 2%). DMEM medium contains 78 µM L-Trp and was supplemented with 500 µM of L-Trp. Cells transfected with hIDO1 were incubated for 7 h at 37 °C in a CO2 incubator. The reaction was stopped in its linear phase by adding trichloroacetic acid (TCA) to the medium at a final concentration of 4%. Plates were centrifuged for 15 min at 4,000 rpm. 100 µL of supernatant was added to 100 µL of 2% (w/v) DMAB in glacial acetic acid. After 10 min the absorbance was measured at a wavelength of 480 nm to detect kynurenine formation. Alternatively, kynurenine content was determined by HPLC as done for the enzymatic assay.

T1 sequence (P14902 whole entry): as above

Usually pIC50 stands for −log10 of the IC50, conventionally taken in molar units. In general, inhibition refers to the change of the read-out against control, counted positive when it falls. Regarding `Clc1ccc(-c2c[nH]nn2)cc1Cl` [Compound 49, 4–(3,4-Dichlorophenyl)-1,2,3-triazole], in series [1], the negative-log IC50 (pIC50) is 4.29 and the “LE [kcal/mol/HA]” value turned out to be 0.45 kcal/mol/HA. Also, the “Tox. [%]” value in series [2] is recorded as 0 (0) %. Besides, the inhibition at 200 µM in series [3] was determined as 65%.

Regarding `Clc1ccc(-c2c[nH]nn2)c(Cl)c1` [Compound 48, 4–(2,4-Dichlorophenyl)-1,2,3-triazole], in series [1], the pIC50 was 4.51 and the “LE [kcal/mol/HA]” value is on record as 0.47 kcal/mol/HA. For the same molecule, in series [2], the “Tox. [%]” value is listed as 0 (0) %. Further, 200 µM produced 63% inhibition in series [3].

Regarding `Nc1c(Cl)cccc1-c1nc[nH]n1` [Compound 141, 2-Chloro-6-(1H-1,2,4-triazol-3-yl)aniline], in series [1], the pIC50 was 4.54 and the “LE [kcal/mol/HA]” value is on record as 0.48 kcal/mol/HA. The “Tox. [%]” value in series [2] was 13 (4) %. The molecule also yielded an inhibition at 200 µM in series [3] of 82%.

In general, melting point refers to the temperature, or range, at which the solid turns liquid. In turn, `Cc1[nH]nnc1-c1cc(Cl)ccc1O` [Compound 68, 4-Chloro-2–(5-methyl-1,2,3-triazol-4-yl)phenol] gave a melting point of 149 to 151 °C. Besides, in series [1], the pIC50 was 3.66 and the “LE [kcal/mol/HA]” value is listed as 0.36 kcal/mol/HA.

Turning to `O=C(c1ccc(F)cc1)c1cnn[nH]1` [Compound 110, (4-Fluorophenyl)(1H-1,2,3-triazol-5-yl)methanone], in series [1], the pIC50 was 3.73 and 3.72; the “LE [kcal/mol/HA]” value was 0.36 kcal/mol/HA. For the same molecule, in series [2], the “Tox. [%]” value was 0 (0) %. The molecule further came in with an inhibition at 200 µM in series [3] of 12%.

With `Oc1ccc(F)cc1-c1cnn[nH]1` [Compound 34, 4-Fluoro-2-(1H-1,2,3-triazol-5-yl)phenol], the melting point was in the range of 186 to 188 °C. Moreover, in series [1], the pIC50 was 6.85 and the “LE [kcal/mol/HA]” value is given as 0.72 kcal/mol/HA.

On to `O=C(c1ccoc1)c1cnn[nH]1` [Compound 115, Furan-3-yl(1H-1,2,3-triazol-5-yl)methanone], for which, in series [1], the pIC50 is 4.80 and the “LE [kcal/mol/HA]” value was determined as 0.55 kcal/mol/HA. In addition, the “Tox. [%]” value in series [2] is listed as 0 (0) %. Further, 200 µM produced 73% inhibition in series [3].

Consider `Cc1ccc(O)c(-c2cnn[nH]2)c1` [Compound 35, 4-Methyl-2-(1H-1,2,3-triazol-5-yl)phenol], for which the melting point is 160 to 162 °C. Besides, in series [1], the pIC50 is 6.26 and the “LE [kcal/mol/HA]” value was found to be 0.66 kcal/mol/HA.

`CCc1ccc(O)c(-c2cnn[nH]2)c1` [Compound 36, 4-Ethyl-2-(1H-1,2,3-triazol-5-yl)phenol]: the melting point was in the range of 71 to 73 °C. Further, in series [1], the pIC50 was 6.60 and the “LE [kcal/mol/HA]” value came to 0.64 kcal/mol/HA.

Take `O=C(c1cnn[nH]1)c1ccc(Cl)cc1O` [Compound 112, (4-Chloro-2-hydroxyphenyl)(1H-1,2,3-triazol-5-yl)methanone]: in series [1], the pIC50 is 4.96 and the “LE [kcal/mol/HA]” value was determined as 0.45 kcal/mol/HA. Moreover, in series [2], the “Tox. [%]” value is given as 0 (0) %. Besides, at 200 µM the inhibition in series [3] was 32%.

For `O=C(c1cnn[nH]1)c1ccccc1O` [Compound 106, (2-Hydroxyphenyl)(1H-1,2,3-triazol-5-yl)methanone], in series [1], the pIC50 was 3.90 and 3.89; the “LE [kcal/mol/HA]” value is reported as 0.38 kcal/mol/HA. In series [2], the “Tox. [%]” value is 0 (0) %. For the same molecule, 200 µM produced 12% inhibition in series [3].

Regarding `O=C(c1cnn[nH]1)c1cccs1` [Compound 116, Thiophen-2-yl(1H-1,2,3-triazol-5-yl)methanone], in series [1], the pIC50 was 4.77 and the “LE [kcal/mol/HA]” value was 0.54 kcal/mol/HA. For the same molecule, the “Tox. [%]” value in series [2] was 0 (0) %. In series [3], this molecule registered an inhibition at 200 µM of 62%.

The molecule `Oc1cccc(O)c1-c1cnn[nH]1` [Compound 44, 2-(1H-1,2,3-triazol-5-yl)benzene-1,3-diol] registered a melting point of 257 to 259 °C. Moreover, in series [1], the pIC50 is 4.89 and the “LE [kcal/mol/HA]” value is listed as 0.51 kcal/mol/HA.

For `Nc1cccc(N)c1-c1nc[nH]n1` [Compound 142, 2-(1H-1,2,4-triazol-3-yl)benzene-1,3-diamine], in series [1], the pIC50 was 4.51 and the “LE [kcal/mol/HA]” value is recorded as 0.47 kcal/mol/HA. Also, in series [2], the “Tox. [%]” value was 11 (0.4) %. In addition, 200 µM produced 56% inhibition in series [3].

`O=C(c1ccc(Br)cc1)c1cnn[nH]1` [Compound 109, (4-Bromophenyl)(1H-1,2,3-triazol-5-yl)methanone]: in series [1], the pIC50 was 4.89 and the “LE [kcal/mol/HA]” value worked out at 0.48 kcal/mol/HA. Also, the “Tox. [%]” value in series [2] is given as 0 (0) %. This molecule came in with an inhibition at 200 µM in series [3] of 55%.

Regarding `Clc1cccc(-c2c[nH]nn2)c1OCCc1ccccc1` [Compound 43, 4–(3-Chloro-2-phenethoxyphenyl)-1,2,3-triazole], the melting point lay within 96 to 99 °C. Moreover, in series [1], the pIC50 is 4.51 and the “LE [kcal/mol/HA]” value stood at 0.29 kcal/mol/HA.

For `COc1ccc(C(=O)c2cnn[nH]2)cc1` [Compound 105, (4-Methoxyphenyl)(1H-1,2,3-triazol-5-yl)methanone], in series [1], the pIC50 is 3.70 and the “LE [kcal/mol/HA]” value came out at 0.34 kcal/mol/HA. In addition, the “Tox. [%]” value in series [2] is 0 (0) %. The molecule also displayed an inhibition at 200 µM in series [3] of 22%.

Turning to `O=C(c1cscn1)c1cnn[nH]1` [Compound 118, Thiazol-4-yl(1H-1,2,3-triazol-5-yl)methanone], in series [1], the negative-log IC50 (pIC50) was 4.09 and the “LE [kcal/mol/HA]” value is recorded as 0.46 kcal/mol/HA. Moreover, the “Tox. [%]” value in series [2] is reported as 0 (0) %. In series [3], the inhibition at 200 µM came out at 17%.

For `Brc1ccc(Nc2c[nH]nn2)cc1` [Compound 78, N-(4-Bromophenyl)-1,2,3-triazol-4-amine, reference compound], in series [1], the pIC50 is 4.28 and the “LE [kcal/mol/HA]” value is given as 0.45 kcal/mol/HA. Further, the “Tox. [%]” value in series [2] is 0 (0) %. The molecule also displayed an inhibition at 200 µM in series [3] of 97%.

On to `O=C(c1cccnc1)c1cnn[nH]1` [Compound 121, Pyridin-3-yl(1H-1,2,3-triazol-5-yl)methanone], for which, in series [1], the pIC50 was 3.19 and the “LE [kcal/mol/HA]” value is given as 0.33 kcal/mol/HA. In series [2], the “Tox. [%]” value was 0 (0) %. In series [3], this molecule showed an inhibition at 200 µM of 3.9%.

For the molecule `CC(=O)Nc1ccc(Cl)cc1-c1nc[nH]n1` [Compound 146, N-(4-Chloro-2-(1H-1,2,4-triazol-3-yl)phenyl)acetamide], in series [1], the pIC50 is 3.37 and 3.38; the “LE [kcal/mol/HA]” value came to 0.29 kcal/mol/HA. The “Tox. [%]” value in series [2] is given as 0 (0) %. In series [3], this molecule gave an inhibition at 200 µM of 89%.

Take `O=C(c1cnn[nH]1)c1ccco1` [Compound 114, Furan-2-yl(1H-1,2,3-triazol-5-yl)methanone]: in series [1], the pIC50 was 3.64 and the “LE [kcal/mol/HA]” value is recorded as 0.41 kcal/mol/HA. Besides, the “Tox. [%]” value in series [2] was 0 (0) %. The same molecule came in with an inhibition at 200 µM in series [3] of 20%.

`O=C(c1ccsc1)c1cnn[nH]1` [Compound 117, Thiophen-3-yl(1H-1,2,3-triazol-5-yl)methanone]: in series [1], the pIC50 was 4.17 and the “LE [kcal/mol/HA]” value is recorded as 0.47 kcal/mol/HA. In series [2], the “Tox. [%]” value was 0 (0) %. Moreover, the inhibition at 200 µM in series [3] came out at 23%.

Take `O=C(c1ccc(Cl)cc1)c1cnn[nH]1` [Compound 102, (4-Chlorophenyl)(1H-1,2,3-triazol-5-yl)methanone]: in series [1], the pIC50 is 4.51 and the “LE [kcal/mol/HA]” value amounted to 0.44 kcal/mol/HA. In addition, the “Tox. [%]” value in series [2] was 0 (0) %. In series [3], this molecule had an inhibition at 200 µM of 37%.

Source of the values: publication PMC9246256, “Structure-based optimization of type III indoleamine 2,3-dioxygenase 1 (IDO1) inhibitors” (Journal of Enzyme Inhibition and Medicinal Chemistry, 2022).
